Results taken from article PMC9863562, “Design, Synthesis, and Biological Evaluation of 2-Mercaptobenzoxazole Derivatives as Potential Multi-Kinase Inhibitors” (Pharmaceuticals, 2023).

How the values were obtained:
Human VEGFR-2 = target: T1, Human VEGFR-2 (Homo sapiens, UniProt P35968); assay: In vitro VEGFR-2 enzyme assay (ELISA kit); format: biochemical; details: read-out: IC50 VEGFR2
T1 construct: purchased
Experimental: (§1) Compound 6b was biologically evaluated for its inhibitory effect against CDK2, EGFR, HER2, and VEGFR-2. Human CDK2, EGFR, HER2, and VEGFR-2 ELISA kits (Enzyme-Linked-Immunosorbent Serologic Assay) were used during this evaluation. At first, specified antibody proteins were added separately to a 96-well plate, then 0.1 mL of the standard solution or the evaluated molecule was added; these were then incubated for 2.5 h at RT. After rinsing, 100 μL of the ready-made biotin antibody protein was added, then incubated for one extra hour at room temperature and, finally, washed. Next, 100 μL of streptavidin solution was added, incubated at room temperature for 45 min, and then washed. Next, 100 μL of the TMB substrate reagent was added and incubated for 0.5 h at RT, followed by adding 50 μL of the stop solution. The absorbance of the ELISA plate was promptly measured at 450 nm using the ELISA plate reader. The standard curve that was generated had absorbances on the Y-axis and concentrations on the X-axis.

[1] = system: MCF-7 cells (mammary gland cancer); assay: MTT cytotoxicity assay, MCF-7; format: cell-based; details: Homo sapiens, MCF7, 24 h treatment, read-out: In Vitro Cytotoxicity IC50 MCF-7
Experimental: After incubation, the cells were treated with various concentrations of the synthesized compounds and incubated for an additional 24 h. Following the drug treatment, 20 µL of 5 mg/mL MTT solution was added and incubated for 4 h. To dissolve the purple formazan that had formed, 100 µL dimethyl sulfoxide (DMSO) was added to each well. […] The percentage of relative cell viability was counted using the following formula (A570 of handled specimens/A570 of the unhandled specimen), multiplied by 100.

HepG2 cells = assay: Annexin V-FITC/PI dual-staining apoptosis analysis; format: cell-based, human; details: HepG2, 6b at 6.83 μM, 24 h
Experimental: To identify the mode of cell death promoted by compound 6b within the liver cancer cells (HepG2), apoptosis rate analysis was performed, following 24 h of exposure. […] Moreover, the average proportion of Annexin-V-stained positive cells (total apoptotic cells) was elevated from 2.02% within the untreated cells to 16.84% within the treated ones. […] The provided findings are supported by the previous cell cycle analysis, confirming the potentiality of 6b as a promising anticancer agent (see Table 6 and Figure 6).
Apoptosis analysis was employed to evaluate the apoptotic effect of compound 6b. […] These stained cells were evaluated using flow cytometry equipment Epics XL-MCL™ (Beckman Coulter, Apeldoorn, Netherlands) with an excitation wavelength of 488 nm and an emission wavelength of 530 nm. The results were then analyzed with the Flowing software.

Human HER2 = target: T2, Human HER2 (Homo sapiens, UniProt P04626); assay: In vitro HER2 enzyme assay (ELISA kit); format: biochemical
T2 construct: purchased
T2 sequence (P04626 23-1255): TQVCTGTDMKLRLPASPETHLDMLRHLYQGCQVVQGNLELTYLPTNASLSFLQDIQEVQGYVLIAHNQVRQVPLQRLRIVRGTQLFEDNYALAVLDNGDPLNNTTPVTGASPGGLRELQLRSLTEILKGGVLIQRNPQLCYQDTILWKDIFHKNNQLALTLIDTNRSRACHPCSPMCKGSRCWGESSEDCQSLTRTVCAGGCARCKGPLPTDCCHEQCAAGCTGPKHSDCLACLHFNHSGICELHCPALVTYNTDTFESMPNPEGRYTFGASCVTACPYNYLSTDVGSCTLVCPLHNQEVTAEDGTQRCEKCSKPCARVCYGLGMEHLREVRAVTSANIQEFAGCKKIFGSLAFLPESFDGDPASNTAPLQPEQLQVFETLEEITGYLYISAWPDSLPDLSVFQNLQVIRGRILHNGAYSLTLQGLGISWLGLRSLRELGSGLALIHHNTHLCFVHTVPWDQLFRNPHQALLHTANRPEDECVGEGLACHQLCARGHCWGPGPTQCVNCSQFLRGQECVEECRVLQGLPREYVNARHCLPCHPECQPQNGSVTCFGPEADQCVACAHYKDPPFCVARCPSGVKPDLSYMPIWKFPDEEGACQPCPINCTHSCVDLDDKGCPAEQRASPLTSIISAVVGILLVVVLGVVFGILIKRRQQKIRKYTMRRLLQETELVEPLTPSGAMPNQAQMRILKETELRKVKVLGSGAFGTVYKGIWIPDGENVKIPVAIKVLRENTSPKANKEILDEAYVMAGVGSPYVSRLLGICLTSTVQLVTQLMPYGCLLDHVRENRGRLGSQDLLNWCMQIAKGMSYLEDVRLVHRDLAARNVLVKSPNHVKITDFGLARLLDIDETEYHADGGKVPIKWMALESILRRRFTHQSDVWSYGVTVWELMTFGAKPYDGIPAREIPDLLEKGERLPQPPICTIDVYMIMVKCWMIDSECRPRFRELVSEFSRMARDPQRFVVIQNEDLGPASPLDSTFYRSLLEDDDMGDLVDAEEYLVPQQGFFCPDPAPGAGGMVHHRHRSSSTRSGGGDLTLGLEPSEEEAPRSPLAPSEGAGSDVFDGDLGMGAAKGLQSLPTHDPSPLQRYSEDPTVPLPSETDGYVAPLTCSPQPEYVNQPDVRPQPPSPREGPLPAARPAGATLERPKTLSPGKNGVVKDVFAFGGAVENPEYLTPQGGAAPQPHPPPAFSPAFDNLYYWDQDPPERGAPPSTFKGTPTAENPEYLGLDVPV
Experimental: as §1, with “Human” for “Compound 6b was biologically evaluated for its inhibitory effect against CDK2, EGFR, HER2, and VEGFR-2. Human”, “reader.” for “reader. The standard curve that was generated had absorbances on the Y-axis and concentrations on the X-axis.”

Human EGFR = target: T3, Human EGFR (Homo sapiens, UniProt P00533); assay: In vitro EGFR enzyme assay (ELISA kit); format: biochemical
T3 construct: purchased
T3 sequence (P00533 25-1210): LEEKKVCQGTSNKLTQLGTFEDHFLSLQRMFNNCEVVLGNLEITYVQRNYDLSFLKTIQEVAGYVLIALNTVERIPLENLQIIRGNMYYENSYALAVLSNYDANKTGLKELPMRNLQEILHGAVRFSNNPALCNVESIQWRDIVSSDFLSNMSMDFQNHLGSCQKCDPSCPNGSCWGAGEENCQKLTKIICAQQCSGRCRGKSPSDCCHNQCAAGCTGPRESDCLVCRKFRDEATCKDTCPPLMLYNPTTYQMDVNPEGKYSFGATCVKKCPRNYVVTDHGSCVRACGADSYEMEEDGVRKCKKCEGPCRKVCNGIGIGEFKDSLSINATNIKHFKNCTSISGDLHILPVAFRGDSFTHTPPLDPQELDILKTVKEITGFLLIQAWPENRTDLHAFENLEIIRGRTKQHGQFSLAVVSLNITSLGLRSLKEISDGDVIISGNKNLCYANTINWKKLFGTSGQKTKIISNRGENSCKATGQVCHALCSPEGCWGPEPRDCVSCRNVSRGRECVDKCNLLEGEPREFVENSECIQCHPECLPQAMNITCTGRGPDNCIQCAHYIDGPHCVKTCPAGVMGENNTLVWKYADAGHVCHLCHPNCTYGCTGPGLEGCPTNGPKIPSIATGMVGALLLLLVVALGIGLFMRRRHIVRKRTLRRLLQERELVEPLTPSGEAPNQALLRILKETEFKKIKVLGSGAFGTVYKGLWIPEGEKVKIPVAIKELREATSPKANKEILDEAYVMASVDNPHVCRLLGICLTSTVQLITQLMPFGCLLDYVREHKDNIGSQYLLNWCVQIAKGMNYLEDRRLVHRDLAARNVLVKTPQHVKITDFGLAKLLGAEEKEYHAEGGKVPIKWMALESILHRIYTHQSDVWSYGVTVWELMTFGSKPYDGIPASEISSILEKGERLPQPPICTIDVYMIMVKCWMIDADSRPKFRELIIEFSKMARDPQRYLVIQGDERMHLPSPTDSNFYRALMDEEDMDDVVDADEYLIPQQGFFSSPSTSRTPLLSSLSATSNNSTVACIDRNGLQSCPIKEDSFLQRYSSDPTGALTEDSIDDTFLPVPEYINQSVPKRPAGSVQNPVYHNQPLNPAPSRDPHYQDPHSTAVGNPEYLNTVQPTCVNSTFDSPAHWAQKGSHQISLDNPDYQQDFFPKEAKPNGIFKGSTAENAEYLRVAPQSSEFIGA
Experimental: as §1, with “Human” for “Compound 6b was biologically evaluated for its inhibitory effect against CDK2, EGFR, HER2, and VEGFR-2. Human”, “reader.” for “reader. The standard curve that was generated had absorbances on the Y-axis and concentrations on the X-axis.”

Bax = assay: Apoptosis-related proteins in HepG2 cells (ELISA), Bax; format: cell-based, human
Text: (§2) Compound 6b was selected to investigate the apoptotic markers against the liver cancer cell line (HepG2). […] Typically, Bax, Bcl-2, and caspases contribute to the regulation of apoptotic signaling. Acting as an apoptotic activator (Bax) or inhibitor (Bcl-2), the Bcl-2 family of proteins plays a significant role in apoptosis. The caspase family comprises cysteine proteases that are classified as either executioner—caspase-3, or as initiators—caspase-9 and caspase-8 [40]. […] Nevertheless, considerable downregulation of the anti-apoptotic gene, Bcl-2 (0.26 folds), was described, leading to an increased expression ratio of Bax/Bcl-2 (1→20.53). The Bax/Bcl-2 gene expression ratio can serve as an early predictor for cancer in patients and is a sensitive monitor of cancer progression. Collating all the provided evidence, the upregulation of caspase-3, caspase-9, and Bax is clear, while the downregulation of Bcl-2 genes makes it evident that compound 6b induces apoptosis within the liver cancer cell line (HepG2).
The HepG2 cells were incubated in 96-well plates in triplicates and left for 24 h. After 24 h of incubation, the cells were treated with compound 6b at different concentrations, while control cells were only treated with 0.1% DMSO (v/v). The treated cells, along with control cells, were then incubated for another 24 h; then, caspases-3 and 9, BAX, and Bcl-2 levels were determined using ELISA assay kits; KHO1091 (Invitrogen^TM, Grand Island, NY, USA), EIA-4860 (DRU International, Inc., Mountainside, NJ, USA), EIA-4487 (DRU International INC., Mountainside, NJ, USA) and 99–0042 (Invitrogen^TM, Grand Island, NY, USA), respectively, according to their manufacturers’ procedures.

Caspase-3 = assay: Apoptosis-related proteins in HepG2 cells (ELISA), Caspase-3; format: cell-based, human
Text: as §2, with “Collating all the provided evidence, the upregulation of caspase-3, caspase-9, and Bax is clear, while the downregulation of Bcl-2 genes makes it evident that compound 6b induces apoptosis within the liver cancer cell line (HepG2).” left out
The HepG2 cells were incubated in 96-well plates in triplicates and left for 24 h. […] The treated cells, along with control cells, were then incubated for another 24 h; then, caspases-3 and 9, BAX, and Bcl-2 levels were determined using ELISA assay kits; KHO1091 (Invitrogen^TM, Grand Island, NY, USA), EIA-4860 (DRU International, Inc., Mountainside, NJ, USA), EIA-4487 (DRU International INC., Mountainside, NJ, USA) and 99–0042 (Invitrogen^TM, Grand Island, NY, USA), respectively, according to their manufacturers’ procedures.

T1 sequence (P35968 20-1356): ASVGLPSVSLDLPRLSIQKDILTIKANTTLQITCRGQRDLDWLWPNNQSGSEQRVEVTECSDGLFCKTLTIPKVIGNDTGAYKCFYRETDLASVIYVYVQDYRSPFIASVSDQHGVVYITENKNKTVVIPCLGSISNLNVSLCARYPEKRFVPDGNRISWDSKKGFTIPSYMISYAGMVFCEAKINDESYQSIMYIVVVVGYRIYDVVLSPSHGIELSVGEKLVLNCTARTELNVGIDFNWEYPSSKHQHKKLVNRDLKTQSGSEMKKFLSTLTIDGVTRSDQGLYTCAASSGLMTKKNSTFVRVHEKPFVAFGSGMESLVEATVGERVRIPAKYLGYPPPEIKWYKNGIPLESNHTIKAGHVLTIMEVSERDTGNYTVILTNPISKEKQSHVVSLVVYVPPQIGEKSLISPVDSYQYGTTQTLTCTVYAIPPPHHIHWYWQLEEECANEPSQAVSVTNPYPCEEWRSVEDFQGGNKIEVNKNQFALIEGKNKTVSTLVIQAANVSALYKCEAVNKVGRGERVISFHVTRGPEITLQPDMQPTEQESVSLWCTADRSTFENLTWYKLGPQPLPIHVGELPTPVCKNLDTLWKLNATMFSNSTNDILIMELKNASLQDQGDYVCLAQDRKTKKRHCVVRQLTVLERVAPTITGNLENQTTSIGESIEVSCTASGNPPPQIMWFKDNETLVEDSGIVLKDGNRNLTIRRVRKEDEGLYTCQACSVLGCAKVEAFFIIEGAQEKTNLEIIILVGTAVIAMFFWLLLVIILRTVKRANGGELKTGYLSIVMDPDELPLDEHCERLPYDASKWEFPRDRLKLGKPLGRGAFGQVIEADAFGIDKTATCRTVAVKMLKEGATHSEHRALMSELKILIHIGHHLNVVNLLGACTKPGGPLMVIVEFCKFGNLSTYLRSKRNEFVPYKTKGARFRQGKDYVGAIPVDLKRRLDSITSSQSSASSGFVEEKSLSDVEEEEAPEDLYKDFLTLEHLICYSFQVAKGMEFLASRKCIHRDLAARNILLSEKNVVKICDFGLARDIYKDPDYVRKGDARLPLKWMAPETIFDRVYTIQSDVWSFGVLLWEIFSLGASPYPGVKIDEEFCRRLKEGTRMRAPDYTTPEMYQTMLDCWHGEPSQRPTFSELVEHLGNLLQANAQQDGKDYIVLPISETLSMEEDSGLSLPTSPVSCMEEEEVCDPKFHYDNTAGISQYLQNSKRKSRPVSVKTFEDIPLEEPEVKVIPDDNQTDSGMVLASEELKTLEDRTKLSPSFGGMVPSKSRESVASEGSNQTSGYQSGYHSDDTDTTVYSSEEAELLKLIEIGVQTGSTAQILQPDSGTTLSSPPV

With O=C(CSc1nc2ccccc2o1)NN=Cc1ccc[nH]1 (mixture of isomers) [Compound 6b, (E/Z)-N′-((1H-pyrrol-2-yl)methylene)-2-(benzo[d]oxazol-2-ylthio)acetohydrazide] the IC50 (Human VEGFR-2) was 565 ± 25 nM, the IC50 [1] was 3.64 ± 0.2 µM and the “Early Apoptosis (Lower Right %)” value (HepG2 cells) was 1.64%. The “Late Apoptosis (Upper Right %)” value (HepG2 cells) was 10.91%, the “Total (%) apoptotic cells” value (HepG2 cells) was 16.84% and the IC50 (Human HER2) was 224 ± 13 nM. For the same molecule, the IC50 (Human EGFR) was 279 ± 17 nM, the “Bax Expression” value (Bax; 24 h treatment, ELISA) was 448.4 ± 15.4 pg/mL and the “expression ratio of Bax/Bcl-2” value (Bax; control = 1) was 20.53. The “Bax Fold” value (Bax; versus control HepG2 = 1) was 5.34 fold, the “Caspase-3 Expression” value (Caspase-3; 24 h treatment, ELISA) was 467.6 ± 24 pg/mL and the “Caspase-3 Fold” value (Caspase-3; versus control HepG2 = 1) was 5.02 fold.
